Results from ChEMBL document CHEMBL5108046, “Discovery of Novel Pyrazole-Based KDM5B Inhibitor TK-129 and Its Protective Effects on Myocardial Remodeling and Fibrosis” (J Med Chem, 2022).
Calls of active or inactive are those of the source. No cut-off for these calls is given here.

What was measured:
[1] = system: Fibroblast of cardiac tissue; test: Reversal of Ang II-induced proliferation in neonatal rat cardiac fibroblasts measured after 48 hrs by MTT assay; format: functional, cell-based
[2] = biological target: T1, Lysine-specific demethylase 5B (Homo sapiens, UniProt Q9UGL1); test: Inhibition of KDM5B (unknown origin) at 10 uM incubated for 30 mins by HRTF assay relative to control
T1 sequence (Q9UGL1 whole entry): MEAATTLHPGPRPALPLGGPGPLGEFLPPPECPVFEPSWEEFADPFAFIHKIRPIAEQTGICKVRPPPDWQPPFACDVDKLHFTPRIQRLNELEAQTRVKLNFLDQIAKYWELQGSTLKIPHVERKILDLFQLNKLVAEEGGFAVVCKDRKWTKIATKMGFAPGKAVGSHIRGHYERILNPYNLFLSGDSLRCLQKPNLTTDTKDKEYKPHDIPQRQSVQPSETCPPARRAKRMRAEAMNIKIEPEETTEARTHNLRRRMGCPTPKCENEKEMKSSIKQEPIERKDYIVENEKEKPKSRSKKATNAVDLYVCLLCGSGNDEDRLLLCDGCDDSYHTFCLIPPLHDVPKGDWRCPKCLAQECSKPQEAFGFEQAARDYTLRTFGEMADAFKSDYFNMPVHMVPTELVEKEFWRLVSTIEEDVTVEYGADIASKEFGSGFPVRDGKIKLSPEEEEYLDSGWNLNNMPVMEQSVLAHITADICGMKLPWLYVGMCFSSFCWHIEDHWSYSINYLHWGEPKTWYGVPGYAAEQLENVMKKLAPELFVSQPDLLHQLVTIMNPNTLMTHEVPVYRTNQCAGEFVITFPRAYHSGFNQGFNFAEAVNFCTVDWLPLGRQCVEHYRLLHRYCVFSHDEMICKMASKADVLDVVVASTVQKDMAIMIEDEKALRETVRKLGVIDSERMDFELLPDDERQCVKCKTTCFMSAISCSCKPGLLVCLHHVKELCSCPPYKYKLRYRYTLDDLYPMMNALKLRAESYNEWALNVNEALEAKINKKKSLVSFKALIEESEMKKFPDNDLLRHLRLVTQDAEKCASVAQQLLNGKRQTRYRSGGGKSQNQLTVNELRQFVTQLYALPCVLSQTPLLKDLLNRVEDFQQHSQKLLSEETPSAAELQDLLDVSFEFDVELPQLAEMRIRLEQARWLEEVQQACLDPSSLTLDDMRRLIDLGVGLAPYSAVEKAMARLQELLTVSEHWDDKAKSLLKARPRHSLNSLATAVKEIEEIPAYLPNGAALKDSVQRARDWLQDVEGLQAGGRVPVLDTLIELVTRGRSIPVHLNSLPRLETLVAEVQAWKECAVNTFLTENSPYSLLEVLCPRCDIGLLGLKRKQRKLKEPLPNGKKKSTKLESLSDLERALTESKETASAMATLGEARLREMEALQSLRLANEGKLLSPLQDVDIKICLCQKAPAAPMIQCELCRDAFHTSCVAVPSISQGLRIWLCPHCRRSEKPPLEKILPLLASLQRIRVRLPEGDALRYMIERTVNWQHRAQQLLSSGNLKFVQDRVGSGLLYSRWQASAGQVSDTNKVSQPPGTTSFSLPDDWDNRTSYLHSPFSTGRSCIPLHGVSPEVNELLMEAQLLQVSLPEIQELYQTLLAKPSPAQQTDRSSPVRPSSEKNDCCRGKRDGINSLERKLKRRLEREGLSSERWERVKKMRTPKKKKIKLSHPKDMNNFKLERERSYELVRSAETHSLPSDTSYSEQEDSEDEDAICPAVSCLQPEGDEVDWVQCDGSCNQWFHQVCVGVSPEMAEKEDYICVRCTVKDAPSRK

[3] = biological target: T1, Lysine-specific demethylase 5B; test: Inhibition of KDM5B (unknown origin) incubated for 30 mins by HRTF assay
[4] = biological target: Lysine-specific demethylase 5A (Homo sapiens, UniProt P29375); test: Inhibition of KDM5A (unknown origin) incubated for 30 mins by HRTF assay
Sequence of Lysine-specific demethylase 5A (P29375 whole entry): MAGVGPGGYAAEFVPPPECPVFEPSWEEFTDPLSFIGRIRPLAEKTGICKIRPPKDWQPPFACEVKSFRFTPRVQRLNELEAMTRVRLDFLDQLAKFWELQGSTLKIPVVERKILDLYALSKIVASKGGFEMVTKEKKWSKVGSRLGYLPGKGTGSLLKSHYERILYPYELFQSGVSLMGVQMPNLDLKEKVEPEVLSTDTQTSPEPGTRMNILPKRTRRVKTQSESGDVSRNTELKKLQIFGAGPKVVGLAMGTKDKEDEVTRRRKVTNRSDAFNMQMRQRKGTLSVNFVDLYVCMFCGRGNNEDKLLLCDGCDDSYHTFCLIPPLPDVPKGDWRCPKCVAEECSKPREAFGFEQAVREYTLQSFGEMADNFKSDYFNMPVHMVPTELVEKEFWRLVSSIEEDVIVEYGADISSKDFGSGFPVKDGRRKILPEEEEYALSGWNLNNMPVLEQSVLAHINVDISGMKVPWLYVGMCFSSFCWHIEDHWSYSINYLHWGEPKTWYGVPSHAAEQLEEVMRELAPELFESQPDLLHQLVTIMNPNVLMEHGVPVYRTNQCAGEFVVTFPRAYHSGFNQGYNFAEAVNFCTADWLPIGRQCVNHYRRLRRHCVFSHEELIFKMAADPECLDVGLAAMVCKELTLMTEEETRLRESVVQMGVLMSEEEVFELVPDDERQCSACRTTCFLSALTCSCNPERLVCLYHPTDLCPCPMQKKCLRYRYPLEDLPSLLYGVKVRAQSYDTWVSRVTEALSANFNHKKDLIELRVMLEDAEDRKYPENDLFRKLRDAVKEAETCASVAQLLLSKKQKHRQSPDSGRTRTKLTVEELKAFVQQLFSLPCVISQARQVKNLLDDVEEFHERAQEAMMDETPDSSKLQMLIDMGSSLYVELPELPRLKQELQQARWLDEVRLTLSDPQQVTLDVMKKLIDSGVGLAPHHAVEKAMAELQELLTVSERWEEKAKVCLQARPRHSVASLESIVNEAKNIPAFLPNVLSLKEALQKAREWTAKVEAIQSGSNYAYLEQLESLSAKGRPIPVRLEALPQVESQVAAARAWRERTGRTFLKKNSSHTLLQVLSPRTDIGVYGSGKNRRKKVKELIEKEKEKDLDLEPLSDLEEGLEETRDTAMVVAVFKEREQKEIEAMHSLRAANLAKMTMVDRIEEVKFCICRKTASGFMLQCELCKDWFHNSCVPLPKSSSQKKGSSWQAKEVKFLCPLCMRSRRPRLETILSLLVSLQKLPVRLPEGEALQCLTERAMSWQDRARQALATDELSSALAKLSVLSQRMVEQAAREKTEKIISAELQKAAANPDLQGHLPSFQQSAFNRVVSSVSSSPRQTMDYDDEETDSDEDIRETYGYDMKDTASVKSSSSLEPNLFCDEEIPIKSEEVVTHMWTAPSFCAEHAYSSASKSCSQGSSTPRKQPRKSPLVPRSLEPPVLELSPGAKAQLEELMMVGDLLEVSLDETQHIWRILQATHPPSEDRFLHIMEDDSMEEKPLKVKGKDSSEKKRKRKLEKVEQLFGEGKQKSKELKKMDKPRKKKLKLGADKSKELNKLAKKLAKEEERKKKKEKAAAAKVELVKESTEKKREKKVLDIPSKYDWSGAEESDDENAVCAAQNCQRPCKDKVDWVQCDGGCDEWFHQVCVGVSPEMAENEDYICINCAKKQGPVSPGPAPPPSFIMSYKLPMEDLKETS

[5] = biological target: Lysine-specific demethylase 5C (Homo sapiens, UniProt P41229); test: Inhibition of KDM5C (unknown origin) incubated for 30 mins by HRTF assay
Sequence of Lysine-specific demethylase 5C (P41229 whole entry): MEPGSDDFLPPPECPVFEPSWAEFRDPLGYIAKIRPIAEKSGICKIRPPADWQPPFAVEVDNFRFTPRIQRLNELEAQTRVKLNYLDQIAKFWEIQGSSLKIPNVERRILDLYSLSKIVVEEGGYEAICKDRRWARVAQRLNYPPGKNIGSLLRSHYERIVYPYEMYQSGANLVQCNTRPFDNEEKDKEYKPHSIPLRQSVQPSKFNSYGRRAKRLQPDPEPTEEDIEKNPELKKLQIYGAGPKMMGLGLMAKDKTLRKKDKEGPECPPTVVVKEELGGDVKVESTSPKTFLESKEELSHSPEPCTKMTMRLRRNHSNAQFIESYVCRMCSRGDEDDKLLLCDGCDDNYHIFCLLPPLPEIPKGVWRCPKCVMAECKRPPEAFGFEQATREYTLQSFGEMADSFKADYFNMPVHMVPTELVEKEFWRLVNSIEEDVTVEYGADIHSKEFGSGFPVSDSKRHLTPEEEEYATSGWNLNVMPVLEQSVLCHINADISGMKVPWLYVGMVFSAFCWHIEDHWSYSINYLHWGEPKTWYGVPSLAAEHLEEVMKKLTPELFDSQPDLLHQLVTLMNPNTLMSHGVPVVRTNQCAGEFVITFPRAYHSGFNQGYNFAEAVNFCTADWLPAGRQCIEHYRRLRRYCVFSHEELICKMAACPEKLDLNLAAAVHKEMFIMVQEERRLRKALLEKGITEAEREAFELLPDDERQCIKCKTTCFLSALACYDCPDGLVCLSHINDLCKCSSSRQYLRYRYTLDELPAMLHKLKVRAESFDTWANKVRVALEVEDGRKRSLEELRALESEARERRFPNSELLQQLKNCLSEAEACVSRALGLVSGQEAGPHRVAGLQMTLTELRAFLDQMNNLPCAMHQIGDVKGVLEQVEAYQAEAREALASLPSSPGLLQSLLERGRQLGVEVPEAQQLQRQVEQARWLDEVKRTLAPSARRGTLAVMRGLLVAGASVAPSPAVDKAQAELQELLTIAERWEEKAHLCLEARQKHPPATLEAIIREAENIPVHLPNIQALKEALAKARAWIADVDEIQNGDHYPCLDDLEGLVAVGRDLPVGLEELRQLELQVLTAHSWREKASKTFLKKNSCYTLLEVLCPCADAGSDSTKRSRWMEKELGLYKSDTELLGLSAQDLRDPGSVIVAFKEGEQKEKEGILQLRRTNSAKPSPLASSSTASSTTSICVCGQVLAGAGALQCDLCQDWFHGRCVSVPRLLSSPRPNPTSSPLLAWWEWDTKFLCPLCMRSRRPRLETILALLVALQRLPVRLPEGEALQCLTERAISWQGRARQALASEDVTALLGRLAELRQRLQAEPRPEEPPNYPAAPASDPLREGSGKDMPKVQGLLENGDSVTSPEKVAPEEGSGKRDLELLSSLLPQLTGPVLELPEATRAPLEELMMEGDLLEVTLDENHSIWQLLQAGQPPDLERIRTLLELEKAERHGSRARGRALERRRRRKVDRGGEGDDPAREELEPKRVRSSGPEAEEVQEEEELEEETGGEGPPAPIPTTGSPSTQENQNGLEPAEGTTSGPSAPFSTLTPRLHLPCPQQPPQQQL

[6] = Cytotoxicity against neonatal rat cardiac fibroblast assessed as cell survival rate at 10 uM measured after 48 hrs by MTT assay relative to control; format: toxicity, cell-based, Fibroblast of cardiac tissue; conditions: neonatal rat cardiac fibroblasts, read-out: Activity
[7] = Cytotoxicity against neonatal rat Cardiomyocytes assessed as cell survival rate at 10 uM measured after 48 hrs by MTT assay; format: toxicity, cell-based, Cardiac muscle cell; conditions: read-out: Activity
[8] = system: Fibroblast of cardiac tissue; test: Reversal of Ang II-induced increase in collagen I level in neonatal rat cardiac fibroblasts by Western blot analysis; format: functional, cell-based
[9] = system: Fibroblast of cardiac tissue; test: Reversal of Ang II-induced increase in […] level in neonatal rat cardiac fibroblasts by Western blot analysis; format: functional, cell-based
[10] = system: Fibroblast of cardiac tissue; test: Reversal of Ang II-induced increase in alpha-SMA level in neonatal rat cardiac fibroblasts by Western blot analysis; format: functional, cell-based
[11] = system: Fibroblast of cardiac tissue; test: Reversal of Ang II-induced decrease in H3K4me3 level in neonatal rat cardiac fibroblasts by Western blot analysis; format: functional, cell-based
[12] = system: Fibroblast of cardiac tissue; test: Reversal of Ang II-induced decrease in H3K4me3 level in neonatal rat cardiac fibroblasts by immunofluorescence staining assay; format: functional, cell-based
[13] = system: Fibroblast of cardiac tissue; test: Antimigratory activity in neonatal rat cardiac fibroblasts assessed as fold decrease in Ang II-induced migration measured after 48 hrs by scratch test; format: functional
[14] = system: Fibroblast of cardiac tissue; test: Antimigratory activity in neonatal rat cardiac fibroblasts assessed as fold decrease in Ang II-induced migration measured after 48 hrs by transwell test (reference value: 1.8 fold); format: functional
[15] = Clearance in Sprague-Dawley rat at 2 mg/kg, iv measured upto 24 hrs; format: ADME, organism-based; conditions: in vivo
[16] = Clearance in Sprague-Dawley rat at 10 mg/kg, po measured upto 24 hrs; format: ADME, organism-based; conditions: in vivo
[17] = Volume of distribution at steady state in Sprague-Dawley rat at 10 mg/kg, po measured upto 24 hrs; format: ADME, organism-based; conditions: in vivo
[18] = Volume of distribution at steady state in Sprague-Dawley rat at 2 mg/kg, iv measured upto 24 hrs; format: ADME, organism-based; conditions: in vivo, read-out: Vdss
[19] = Half life in Sprague-Dawley rat at 10 mg/kg, po measured upto 24 hrs; format: ADME, organism-based; conditions: in vivo
[20] = Half life in Sprague-Dawley rat at 2 mg/kg, iv measured upto 24 hrs; format: ADME, organism-based; conditions: in vivo
[21] = Tmax in Sprague-Dawley rat at 10 mg/kg, po measured upto 24 hrs; format: ADME, organism-based; conditions: in vivo
[22] = Cmax in Sprague-Dawley rat at 10 mg/kg, po measured upto 24 hrs; format: ADME, organism-based; set-up: dose 10 mg/kg, time < 24 hrs, route po; conditions: in vivo
[23] = Cmax in Sprague-Dawley rat at 2 mg/kg, iv measured upto 24 hrs; format: ADME, organism-based; set-up: time < 24 hrs, dose 2 mg/kg, route iv; conditions: in vivo
[24] = AUC in Sprague-Dawley rat at 10 mg/kg, po measured upto 24 hrs; format: ADME, organism-based; set-up: dose 10 mg/kg, time < 24 hrs, route po; conditions: in vivo
[25] = AUC in Sprague-Dawley rat at 2 mg/kg, iv measured upto 24 hrs; format: ADME, organism-based; set-up: dose 2 mg/kg, time < 24 hrs, route iv; conditions: in vivo
[26] = Oral bioavailability in Sprague-Dawley rat at 10 mg/kg measured upto 24 hrs; format: ADME, organism-based; conditions: in vivo
[27] = Acute toxicity in C57BL/6 mouse assessed as survival at 2 g/Kg by one-time gavage measured after 2 weeks; conditions: in vivo, po, 2000 mg/kg, 336 h
[28] = Acute toxicity in C57BL/6 mouse assessed as body weight at 2 g/Kg by one-time gavage measured after 2 weeks; conditions: in vivo, po, 2000 mg/kg, 336 h
[29] = Acute toxicity in C57BL/6 mouse assessed as effect on heart at 2 g/Kg by hematoxylin and eosin staining based histopathological analysis; format: tissue-based; conditions: in vivo, 2000 mg/kg
[30] = Acute toxicity in C57BL/6 mouse assessed as effect on spleen at 2 g/Kg by hematoxylin and eosin staining based histopathological analysis; format: tissue-based; conditions: in vivo, 2000 mg/kg
[31] = Acute toxicity in C57BL/6 mouse assessed as effect on liver at 2 g/Kg by hematoxylin and eosin staining based histopathological analysis; format: tissue-based; conditions: in vivo, 2000 mg/kg
[32] = Acute toxicity in C57BL/6 mouse assessed as effect on lung at 2 g/Kg by hematoxylin and eosin staining based histopathological analysis; format: tissue-based; conditions: in vivo, 2000 mg/kg
[33] = Acute toxicity in C57BL/6 mouse assessed as effect on kidney at 2 g/Kg by hematoxylin and eosin staining based histopathological analysis; format: tissue-based; conditions: in vivo, 2000 mg/kg
Mus musculus [34] = test: Anti-myocardial remodeling function in isoproterenol-induced C57BL/6 mouse model assessed as increase in ejection fraction at 20 mg/kg by one-time gavage for 21 days; format: functional; conditions: time 21 day
Mus musculus [35] = test: Anti-myocardial remodeling function in isoproterenol-induced C57BL/6 mouse model assessed as increase in shortening fraction at 20 mg/kg by one-time gavage for 21 days; format: functional; conditions: time 21 day
Mus musculus [36] = test: Anti-myocardial remodeling function in isoproterenol-induced C57BL/6 mouse model assessed as decrease in heart weight to body weight ratio at 20 mg/kg by one-time gavage for 21 days; format: functional; conditions: time 21 day
Mus musculus [37] = test: Anti-myocardial remodeling function in isoproterenol-induced C57BL/6 mouse model assessed as decrease in heart weight to […] ratio at 20 mg/kg by one-time gavage for 21 days; format: functional; conditions: time 21 day
Mus musculus [38] = test: Anti-myocardial remodeling function in isoproterenol-induced C57BL/6 mouse model assessed as increase in ejection fraction at 50 mg/kg by one-time gavage for 21 days; format: functional; conditions: time 21 day
Mus musculus [39] = test: Anti-myocardial remodeling function in isoproterenol-induced C57BL/6 mouse model assessed as increase in shortening fraction at 50 mg/kg by one-time gavage for 21 days; format: functional; conditions: time 21 day
Mus musculus [40] = test: Anti-myocardial remodeling function in isoproterenol-induced C57BL/6 mouse model assessed as decrease in heart weight to body weight ratio at 50 mg/kg by one-time gavage for 21 days; format: functional; conditions: time 21 day
Mus musculus [41] = test: Anti-myocardial remodeling function in isoproterenol-induced C57BL/6 mouse model assessed as decrease in heart weight to […] ratio at 50 mg/kg by one-time gavage for 21 days; format: functional; conditions: time 21 day
Mus musculus [42] = test: Anti-myocardial remodeling function in isoproterenol-induced C57BL/6 mouse heart injury model assessed as reversal of pathological damage at 20 to 50 mg/kg by one-time gavage for 21 days by Masson staining and Sirius Red staining based analysis; format: functional, organism-based; conditions: dose 20-50 mg/kg, time 21.0 day
Mus musculus [43] = test: Anti-myocardial remodeling function in isoproterenol-induced C57BL/6 mouse model assessed as decrease in cardiac hypertrophy ANP protein at 20 mg/kg by one-time gavage for 21 days relative to control; format: functional; set-up: scale not given: the % may be the effect or the level left; conditions: time 21 day
Mus musculus [44] = test: Anti-myocardial remodeling function in isoproterenol-induced C57BL/6 mouse model assessed as decrease in cardiac hypertrophy BNP protein at 20 mg/kg by one-time gavage for 21 days relative to control; format: functional; set-up: scale not given: the % may be the effect or the level left; conditions: time 21 day
Mus musculus [45] = test: Anti-myocardial remodeling function in isoproterenol-induced C57BL/6 mouse model assessed as decrease in cardiac hypertrophy ANP protein at 50 mg/kg by one-time gavage for 21 days relative to control; format: functional; set-up: scale not given: the % may be the effect or the level left; conditions: time 21 day
Mus musculus [46] = test: Anti-myocardial remodeling function in isoproterenol-induced C57BL/6 mouse model assessed as decrease in cardiac hypertrophy BNP protein at 50 mg/kg by one-time gavage for 21 days relative to control; format: functional; set-up: scale not given: the % may be the effect or the level left; conditions: time 21 day

CC(C)c1cc(C(=O)N2CC[C@@H](NC(=O)NC3CC3)C2)n[nH]1
Activity [1]: Active
inhibition [2]: 100%
IC50 [3]: 0.044 µM
IC50 [4]: 0.079 µM
IC50 [5]: 0.353 µM
viability at 48 h, 10 µM [6]: 90%
viability at 48 h, 10 µM [7]: 90%
Activity [8]: Active
Activity [9]: Active
Activity [10]: Active
Activity [11]: Active
Activity [12]: Active
Ratio [13]: 0.77
Ratio [14]: 0.6
clearance [15]: 70 mL/min/kg
CL/F [16]: 165 mL/min/kg
Vdss [17]: 33.4 L/kg
Vd [18]: 2.7 L/kg
half-life [19]: 144 min
half-life [20]: 24 min
Tmax [21]: 24 min
Cmax [22]: 710 ng/mL
Cmax [23]: 1230 ng/mL
AUC at 24 h [24]: 1040 ng·h/mL
AUC at 24 h [25]: 480 ng·h/mL
bioavailability [26]: 42.4%
Activity [27]: Non-Toxic
Activity [28]: Non-Toxic
Activity [29]: Non-Toxic
Activity [30]: Non-Toxic
Activity [31]: Non-Toxic
Activity [32]: Non-Toxic
Activity [33]: Non-Toxic
Activity (Mus musculus [34]): 77%
Activity (Mus musculus [35]): 44%
Ratio (Mus musculus [36]): 0.93
Ratio (Mus musculus [37]): 0.93
Activity (Mus musculus [38]): 83%
Activity (Mus musculus [39]): 50%
Ratio (Mus musculus [40]): 0.89
Ratio (Mus musculus [41]): 0.89
Activity (Mus musculus [42]): Active
Activity (Mus musculus [43]): 85%
Activity (Mus musculus [44]): 75%
Activity (Mus musculus [45]): 71%
Activity (Mus musculus [46]): 54%
